Data set [1] concerns AR. The note with it: previous study, relative to flutamide, cited from earlier work.
Data set [2] concerns ER. The following applies: cited from earlier work.
Data set [3] has as its system AR. Also on record: method as in Okamura et al. [22]; key: +, positive. The note with it: cited from earlier work.
In data set [4] the target is T1, human ER (Homo sapiens, UniProt P03372).
T1 sequence (P03372 1-595): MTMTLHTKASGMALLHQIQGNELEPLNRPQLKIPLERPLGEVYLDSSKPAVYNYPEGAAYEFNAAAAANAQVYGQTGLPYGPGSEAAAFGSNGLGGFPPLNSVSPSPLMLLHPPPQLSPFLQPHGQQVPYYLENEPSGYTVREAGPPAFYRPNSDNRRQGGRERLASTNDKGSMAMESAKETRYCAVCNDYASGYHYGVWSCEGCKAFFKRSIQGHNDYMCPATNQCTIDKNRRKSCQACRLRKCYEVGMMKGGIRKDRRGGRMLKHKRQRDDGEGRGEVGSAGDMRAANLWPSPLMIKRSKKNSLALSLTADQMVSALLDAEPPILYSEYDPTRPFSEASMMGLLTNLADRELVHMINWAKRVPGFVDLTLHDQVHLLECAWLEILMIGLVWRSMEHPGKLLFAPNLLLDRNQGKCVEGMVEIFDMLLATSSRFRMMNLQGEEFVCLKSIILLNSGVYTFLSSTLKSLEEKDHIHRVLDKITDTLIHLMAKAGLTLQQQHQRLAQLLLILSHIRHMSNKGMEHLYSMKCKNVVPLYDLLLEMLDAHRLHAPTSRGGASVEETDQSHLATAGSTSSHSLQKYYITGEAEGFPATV
Also on record: method as in Machala et al. [36]. The following applies: previous study; relative to E2; ref Machala et al. [36]; cited from earlier work.

For data set [5], the target named is T2, human AR (Homo sapiens, UniProt P10275).
T2 sequence (P10275 1-920): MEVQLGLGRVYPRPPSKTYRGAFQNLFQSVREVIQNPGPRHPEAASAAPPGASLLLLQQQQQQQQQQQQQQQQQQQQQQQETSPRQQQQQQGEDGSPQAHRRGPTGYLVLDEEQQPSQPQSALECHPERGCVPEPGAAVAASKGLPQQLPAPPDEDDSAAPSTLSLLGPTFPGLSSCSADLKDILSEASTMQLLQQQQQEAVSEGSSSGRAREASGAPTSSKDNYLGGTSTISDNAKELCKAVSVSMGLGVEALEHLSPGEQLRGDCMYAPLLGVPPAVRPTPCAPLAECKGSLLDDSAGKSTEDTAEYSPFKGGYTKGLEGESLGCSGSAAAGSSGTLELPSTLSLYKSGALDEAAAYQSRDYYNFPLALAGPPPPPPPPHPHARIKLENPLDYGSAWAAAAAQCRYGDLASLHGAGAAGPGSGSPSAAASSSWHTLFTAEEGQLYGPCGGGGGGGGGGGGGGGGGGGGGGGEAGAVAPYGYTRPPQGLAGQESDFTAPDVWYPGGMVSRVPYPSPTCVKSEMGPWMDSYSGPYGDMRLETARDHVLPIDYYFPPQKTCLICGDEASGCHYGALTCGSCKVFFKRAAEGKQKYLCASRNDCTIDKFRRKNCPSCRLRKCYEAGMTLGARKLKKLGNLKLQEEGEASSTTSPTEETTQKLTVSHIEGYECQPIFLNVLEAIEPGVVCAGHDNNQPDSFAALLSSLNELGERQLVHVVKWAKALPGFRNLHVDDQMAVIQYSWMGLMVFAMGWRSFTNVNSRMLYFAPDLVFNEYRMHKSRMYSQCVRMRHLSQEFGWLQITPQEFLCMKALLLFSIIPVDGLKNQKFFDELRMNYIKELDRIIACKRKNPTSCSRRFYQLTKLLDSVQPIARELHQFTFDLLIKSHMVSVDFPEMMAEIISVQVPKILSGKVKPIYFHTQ
The experiment in a line: AR-CALUX assay, antiandrogenic (AR antagonistic) activity, U2OS-luc cells. It is filed as cell-based. On the set-up: host or cells: human U2OS-luc (osteoblastic osteosarcoma) cells. The note with it: for IC25: 24 h exposure with 100 pM DHT (EC50 level); for REPmol (IC25): molar relative potency to flutamide, IC25-based; for IC50: read-out: IC50; for inhibition of AR-mediated luciferase activity: coexposure to DHT at 10 nM (100 × EC50). How it is done:
(§1) The AR- and ER-CALUX assays for the polycyclic aromatic compounds were evaluated according to previously described methods, which used human U2OS-luc cells developed by BioDetection Systems b.v. (Amsterdam, The Netherlands). The cells are transfected stably with human AR and ER, respectively, and a luciferase reporter gene under their respective steroid receptor response elements. […] They were incubated at 37 °C in a humidified atmosphere containing 5% carbon dioxide. […] The medium was then removed, and the cells were lysed. A solution of luciferin was then added, and the luminescence intensity was measured with an ARVO™ X3 luminometer from PerkinElmer (Waltham, MA, USA). A sigmoid dose–response curve for a chemical was fitted to the Hill equation given by Equation (1) using SigmaPlot 11.0 from Systat Software Inc. (San Jose, CA, USA). y = min + (max − min)/(1 + (a1/x)^a^2)(1) where, y and x are the measured luciferase induction level and compound concentration, respectively. […] The REP values in mol base were obtained by dividing the ICs or ECs of the standard by the ICs or ECs of target compound, respectively.
(§2) All measurements were conducted in triplicate wells. They were repeated twice and trice in the AR- and ER-CALUX assays, respectively, for each concentration in dose–response curve. […] Cell viability was confirmed using 3-(4,5-dimethylthiazol-2-yl)-2,5-diphenyltetrazolium bromide (MTT) assay. If the cell viability was <80% in the positive control, the corresponding exposure dose was considered cytotoxic and excluded from the calculation.

Data set [6] deals with ER. On the set-up: method as in Pieterse et al. [30]. The note with it: previous study; relative to E2; ref Pieterse et al. [30]; cited from earlier work.
The target in data set [7] is T2, human AR. Also on record: method as in Otsuki et al. [38]; key: +, positive. The note with it: previous study; ref Otsuki et al. [38]; cited from earlier work.
Data set [8] deals with T1, human ER. The experiment in a line: ER-CALUX assay, estrogenic activity, U2OS-luc cells. The data set is classed as cell-based. On the set-up: host or cells: human U2OS-luc (osteoblastic osteosarcoma) cells. The note with it: for EC50 / REPmol (EC50): present study; for EC50: 24 h exposure; for REPmol (EC50): molar relative potency to E2, EC50-based.
The target of data set [9] is T2, human AR. The experiment in a line: AR-CALUX assay, androgenic (agonistic) activity. On the set-up: host or cells: human U2OS-luc (osteoblastic osteosarcoma) cells. The data set is classed as cell-based. The note with it: data not shown. How it is done: as §1
The test system of data set [10] is ER. Also on record: method as in Boonen et al. [33]. The note with it: previous study; relative to E2; ref Boonen et al. [33]; cited from earlier work.
Data set [11] has as its system U2OS-luc cells. Nature of the data set: MTT cell viability (cytotoxicity) assay. The note with it: cell viability <80% considered cytotoxic. How it is done: as §2
The mark [12] stands for this setting: previous study, relative to E2, ref Šimečková et al. [44].
The mark [13] stands for this setting: previous study, ref Okamura et al. [22].

“Also recorded” adds a separate entry of the source. Like-named read-outs stand apart in the source and are kept apart here. Marks after values point to notes of the source that are not given here.

Data on 13 compounds can be found in paper PMC9819389, “Antiandrogenic and Estrogenic Activity Evaluation of Oxygenated and Nitrated Polycyclic Aromatic Hydrocarbons Using Chemically Activated Luciferase Expression Assays” (International Journal of Environmental Research and Public …, 2022).

As to `c1cc2ccc3cccc4ccc(c1)c2c34` [Py, pyrene], the results for the “REPmol, U2OS” value in data set [1] (ref Alvarez-Muñoz et al. [28]) and in data set [1] (ref Pieterse et al. [30]) were 0.41 and 0.03, respectively. In data set [2] (setting [12]), the “REPmol, T47D” value is reported as 5.3 × 10^−7. The “antiandrogenic activity, PC3” value in data set [3] (setting [13]) is “+”.

For the compound `O=C1c2ccccc2C(=O)c2c1ccc1ccccc21` [BAQ, 7,12-benz[a]anthracenequinone], the “REPmol, MVLN” value in [4] is 1.4 × 10^−6. In data set [5] (present study), the IC25 worked out at 2500 nM and the “REPmol (IC25)” value is listed as 0.056. Besides, the half-maximal inhibitory concentration (IC50) in data set [5] stood at 6400 nM.

As to `c1ccc2cc3c(ccc4ccccc43)cc2c1` [B[a]A, benz[a]anthracene], in [4], the “REPmol, MVLN” value is reported as 7.9 × 10^−7. Moreover, the figures for the “REPmol, U2OS” value in data set [1] (ref Alvarez-Muñoz et al. [28]), in data set [1] (ref Marin-Kuan et al. [29]) and in data set [6] were 1.3, 0.4 and <2 × 10^−9, respectively. Also, the “REPmol, T47D” value in data set [2] (setting [12]) is 1.6 × 10^−6. The “antiandrogenic activity, PC3” value in data set [3] (setting [13]) was “+”.

On to `O=[N+]([O-])c1ccc2ccc3c([N+](=O)[O-])ccc4ccc1c2c43` [1,6-DNPy, 1,6-dinitropyrene], for which, in data set [5] (at 0.1 μM (100 nM), maximum soluble concentration, read-out: inhibition of AR activation), the inhibition at 0.1 µM was greater than 20%. In [7], the “antiandrogenic activity, Yeast” value is given as “+”. Further, in data set [8], the EC50 entry was “U (key: U: < 10% response of 1 nM E2; nd: not detected)” and the “REPmol (EC50)” value is “U (key: U: < 10% response of 1 nM E2; nd: not detected)”.

Regarding `c1ccc2c(c1)cc1ccc3c4ccccc4cc4ccc2c1c43` [DB[a,h]P, dibenzo[a,h]pyrene], the “REPmol, U2OS” value in data set [1] (ref Pieterse et al. [30]) is <0.003 ^e; in data set [6], 2 × 10^−5. Besides, the “antiandrogenic activity (in words)” value in [5] (present study) was “not observed; also recorded: inactive”.

With `c1ccc2c(c1)ccc1c3ccccc3ccc21` [Chr, Chrysene], in data set [2], the “REPmol, T47D” value is recorded as “U (key: U: < 10% response of 1 nM E2; nd: not detected)”. Moreover, in data set [3], the “antiandrogenic activity, PC3” value is reported as “+”.

For the compound `O=[N+]([O-])c1ccc2ccc3cccc4ccc1c2c34` [1-NPy, 1-nitropyrene], in data set [5] (present study), the IC25 is 94 nM and the “REPmol (IC25)” value was 1.4. Besides, the IC50 in [5] came out at 220 nM. Further, the “antiandrogenic activity, Yeast” value in [7] is listed as “+”. Besides, the “activation (level of the response to 1 nM E2)” value in data set [8] (at 10 μM) came to 14% activation at 10 μM.

On to `O=[N+]([O-])c1ccc2c3c(cccc13)-c1ccccc1-2` [3-NFA, 3-nitrofluoranthene], for which, in data set [5], the “concentration above which inhibition of AR-mediated luciferase activity is attenuated (U-shaped curve)” value is recorded as greater than 300 nM and the IC50 turned out to be 14 nM. Also, in data set [5] (at high concentrations compared to at 100 nM), the “attenuation of antiandrogenic activity” value was “approximately 40%”. Moreover, the “inhibition of AR-mediated luciferase activity” value in [5] (compound at 100 nM) stood at 26%. Further, in data set [5] (compound at 10 μM), the “inhibition of AR-mediated luciferase activity” value came out at 82%. Besides, the “mode of AR inhibition” value in data set [5] (from coexposure to 10 nM DHT) is listed as “noncompetitive”. Moreover, in data set [5] (present study), the 25% effect concentration (IC25) was determined as 5.3 nM and the “REPmol (IC25)” value turned out to be 32. Further, the “concentration above which AR-mediated luciferase activity increases (U-shaped curve)” value in [5] (table entry) is listed as “increase at > 0.3 μM”. In [9], the “concentration at which weak androgenic activity was observed” value is no less than 1 µM and the “maximum androgenic induction, relative to the EC50 level of DHT” value is less than 16%. Besides, in [9] (read-out: maximum androgenic induction, level of maximum response of DHT exposure (10 nM)), the Emax is less than 8%. In addition, in [7], the “antiandrogenic activity, Yeast” value is on record as “+”. For the same compound, in data set [8], the EC50 entry is “U (< 10% response of 1 nM E2)” and the “REPmol (EC50)” value is “U (< 10% response of 1 nM E2)”.

As for `c1ccc2c(c1)-c1cccc3cccc-2c13` [FA, fluoranthene], in [1] (ref Alvarez-Muñoz et al. [28]), the “REPmol, U2OS” value was 0.96 ^f. Also, the “REPmol, VM7” value in data set [10] was 4.1 × 10^−7.

With `c1ccc2c(c1)cc1ccc3cccc4ccc2c1c34` [B[a]P, benzo[a]pyrene], the figures for the “REPmol, U2OS” value in [1] (ref Marin-Kuan et al. [29]), in data set [1] (ref Pieterse et al. [30]) and in data set [6] were 0.4, 0.1 and 2 × 10^−6, respectively. Besides, the “REPmol, T47D” value in data set [2] (setting [12]) was 3.1 × 10^−6. Besides, the “REPmol, VM7” value in data set [10] is on record as 5.3 × 10^−6. Moreover, the “antiandrogenic activity, PC3” value in [3] (setting [13]) is “+”.

In the case of `c1ccc2c(c1)ccc1ccccc12` [Phe, phenanthrene], the “REPmol, U2OS” value in data set [1] (ref Pieterse et al. [30]) is given as 0.1 ^e; in [6] it was <3 × 10^−9. In addition, the “REPmol, VM7” value in data set [10] is 1.2 × 10^−6.

On to `O=C1C(=O)c2ccccc2-c2ccccc21` [PhQ, phenanthrenequinone], for which, in [5] (present study), the 25% effect concentration (IC25) came out at 180 nM and the “REPmol (IC25)” value came to 0.63. The half-inhibitory concentration (IC50) in [5] came out at 390 nM. The “concentration at which cytotoxicity was confirmed” value in data set [11] turned out to be 1000 nM.

For the compound `C[C@]12CC[C@@H]3c4ccc(O)cc4CC[C@H]3[C@@H]1CC[C@@H]2O` [E2, 17β-estradiol, reference compound], the “REPmol, U2OS” value in data set [6] is on record as 1. Also, in [2] (setting [12]), the “REPmol, T47D” value is 1. The “REPmol, VM7” value in [10] is 1.

What is called IC25 is the concentration at which the effect reaches the 25% level. By IC50 is commonly meant the point on the concentration scale where inhibition reaches its midpoint. One may read the inhibition as the percentage by which the read-out fell short of the control.
